Source: patent US20170190705A1, “Compositions and Methods for Inhibiting BMP” (THE BRIGHAM AND WOMAN'S HOSPITAL, INC., priority 2014, published 2017)
Read-outs that look alike come from different tables or passages of the source.

Experiments:
Assay type in all cases: biochemical
EPHB4 = biological target: T1, EPHB4 (Homo sapiens, UniProt P54760); test: Kinome profiling EPHB4; conditions: read-out: Inhibitory activity EPHB4; for inhibition at 0.1 µM: 100 nM
T1 sequence (P54760 16-987): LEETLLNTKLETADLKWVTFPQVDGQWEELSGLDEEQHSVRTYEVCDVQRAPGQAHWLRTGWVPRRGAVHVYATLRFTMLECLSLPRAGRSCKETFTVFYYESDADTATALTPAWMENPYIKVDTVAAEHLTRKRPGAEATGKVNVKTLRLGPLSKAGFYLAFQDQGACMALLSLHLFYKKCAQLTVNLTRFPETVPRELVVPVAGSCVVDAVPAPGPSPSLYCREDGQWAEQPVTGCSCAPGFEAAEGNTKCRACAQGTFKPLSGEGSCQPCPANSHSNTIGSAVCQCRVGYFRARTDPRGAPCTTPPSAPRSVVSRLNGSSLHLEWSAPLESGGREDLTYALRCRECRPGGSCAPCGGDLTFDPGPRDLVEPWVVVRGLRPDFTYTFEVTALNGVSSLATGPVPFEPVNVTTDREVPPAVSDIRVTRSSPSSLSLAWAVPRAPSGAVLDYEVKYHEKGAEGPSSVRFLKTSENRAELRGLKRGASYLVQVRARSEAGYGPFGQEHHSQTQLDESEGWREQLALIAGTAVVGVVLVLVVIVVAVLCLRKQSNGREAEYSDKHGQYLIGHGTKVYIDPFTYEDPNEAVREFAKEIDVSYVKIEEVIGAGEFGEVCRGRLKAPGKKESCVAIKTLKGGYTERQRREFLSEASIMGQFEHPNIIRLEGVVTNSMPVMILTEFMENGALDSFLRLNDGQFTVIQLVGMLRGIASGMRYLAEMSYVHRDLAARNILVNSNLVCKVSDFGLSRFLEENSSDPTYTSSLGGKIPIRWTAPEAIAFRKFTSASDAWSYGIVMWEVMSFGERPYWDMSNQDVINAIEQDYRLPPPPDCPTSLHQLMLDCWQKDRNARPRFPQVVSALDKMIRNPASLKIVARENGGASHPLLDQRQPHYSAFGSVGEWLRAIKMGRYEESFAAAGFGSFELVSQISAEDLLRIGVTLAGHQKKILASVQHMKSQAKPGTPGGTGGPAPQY
Description: (§1) . The kinome-wide selectivity was determined following the methods previously reported by Mohedas et al., ACS Chem Biol 2013, 8, 1291-1302 and Sanvitale et al., PLoS One 2013, 8, e62721.

MAP4K2 = biological target: T2, MAP4K2 (Homo sapiens, UniProt Q12851); test: Kinome profiling MAP4K2; conditions: for inhibition at 0.1 µM: 100 nM
T2 sequence (Q12851 1-820): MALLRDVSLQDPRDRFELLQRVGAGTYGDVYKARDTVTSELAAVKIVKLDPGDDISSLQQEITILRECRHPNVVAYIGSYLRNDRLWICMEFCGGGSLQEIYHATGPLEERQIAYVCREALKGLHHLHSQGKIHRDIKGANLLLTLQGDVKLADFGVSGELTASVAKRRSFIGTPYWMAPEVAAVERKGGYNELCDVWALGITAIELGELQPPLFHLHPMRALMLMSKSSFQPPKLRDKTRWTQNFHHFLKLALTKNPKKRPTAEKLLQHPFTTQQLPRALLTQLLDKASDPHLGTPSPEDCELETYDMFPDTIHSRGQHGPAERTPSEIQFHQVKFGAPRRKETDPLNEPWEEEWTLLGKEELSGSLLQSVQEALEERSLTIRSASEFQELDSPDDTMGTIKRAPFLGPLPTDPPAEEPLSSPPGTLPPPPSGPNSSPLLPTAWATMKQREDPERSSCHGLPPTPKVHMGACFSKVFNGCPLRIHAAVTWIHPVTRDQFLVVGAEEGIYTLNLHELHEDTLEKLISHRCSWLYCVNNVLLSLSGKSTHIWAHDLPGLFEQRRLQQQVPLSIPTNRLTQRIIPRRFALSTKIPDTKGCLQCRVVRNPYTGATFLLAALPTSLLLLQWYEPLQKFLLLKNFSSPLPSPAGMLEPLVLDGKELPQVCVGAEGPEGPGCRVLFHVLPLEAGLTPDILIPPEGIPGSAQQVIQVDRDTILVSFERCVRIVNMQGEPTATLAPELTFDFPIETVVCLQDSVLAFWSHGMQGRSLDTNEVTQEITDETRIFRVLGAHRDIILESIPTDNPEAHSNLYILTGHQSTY
Description: as §1

NEK9 = biological target: T3, NEK9 (Homo sapiens, UniProt Q8TD19); test: Kinome profiling NEK9; conditions: read-out: Inhibitory activity NEK9; for inhibition at 0.1 µM: 100 nM
T3 sequence (Q8TD19 1-979): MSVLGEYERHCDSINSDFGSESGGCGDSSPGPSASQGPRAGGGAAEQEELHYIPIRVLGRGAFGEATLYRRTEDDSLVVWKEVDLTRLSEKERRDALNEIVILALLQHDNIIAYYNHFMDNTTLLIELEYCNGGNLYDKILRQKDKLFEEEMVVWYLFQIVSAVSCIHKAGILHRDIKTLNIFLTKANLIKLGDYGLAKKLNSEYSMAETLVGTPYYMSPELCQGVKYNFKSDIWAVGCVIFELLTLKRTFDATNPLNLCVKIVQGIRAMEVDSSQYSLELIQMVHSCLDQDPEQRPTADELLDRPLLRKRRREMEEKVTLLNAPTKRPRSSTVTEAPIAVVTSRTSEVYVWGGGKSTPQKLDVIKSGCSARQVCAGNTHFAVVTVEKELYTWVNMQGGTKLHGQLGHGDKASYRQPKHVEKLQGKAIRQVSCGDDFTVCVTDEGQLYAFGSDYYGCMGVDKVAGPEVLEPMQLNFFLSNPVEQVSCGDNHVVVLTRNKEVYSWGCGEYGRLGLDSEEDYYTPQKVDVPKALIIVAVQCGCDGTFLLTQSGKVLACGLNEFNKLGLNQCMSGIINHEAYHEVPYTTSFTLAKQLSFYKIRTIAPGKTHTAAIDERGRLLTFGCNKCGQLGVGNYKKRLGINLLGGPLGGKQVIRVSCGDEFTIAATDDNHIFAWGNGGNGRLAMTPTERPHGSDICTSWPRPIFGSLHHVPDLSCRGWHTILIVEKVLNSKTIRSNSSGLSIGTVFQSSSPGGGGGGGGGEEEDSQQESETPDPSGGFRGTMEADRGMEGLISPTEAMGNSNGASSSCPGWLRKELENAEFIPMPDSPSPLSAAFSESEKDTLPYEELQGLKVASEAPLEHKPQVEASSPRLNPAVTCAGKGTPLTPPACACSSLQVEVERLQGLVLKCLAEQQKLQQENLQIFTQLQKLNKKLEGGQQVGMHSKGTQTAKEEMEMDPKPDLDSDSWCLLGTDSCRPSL
Description: as §1

[1] = Table 4, read-out: Inhibitory Activity MAP4K2
[2] = read-out: Inhibitory activity MAP4K2

Compound | inhibition at 0.1 µM (EPHB4) | inhibition at 1 µM (EPHB4) | inhibition at 0.1 µM (MAP4K2; [1]) | inhibition at 0.1 µM (MAP4K2; [2]) | inhibition at 1 µM (MAP4K2; [1]) | inhibition at 1 µM (MAP4K2; [2]) | inhibition at 0.1 µM (NEK9) | inhibition at 1 µM (NEK9)
COc1cc(-c2cc(-c3ccc(N4CCNCC4)cc3)cnc2C)cc(OC)c1OC [Compound 10, 1-(4-(6-methyl-5-(3,4,5-trimethoxyphenyl)pyridin-3-yl)phenyl)piperazine] | 5% | 8% | 16% | 16% | 61% | 61% | 1% | 1%
COc1cc(-c2cc(-c3ccc(N4CCNCC4)cc3)cnc2N)cc(OC)c1OC [Compound 15, 5-(4-(piperazin-1-yl)phenyl)-3-(3,4,5-trimethoxyphenyl)pyridin-2-amine] | 7% | 45% | – | 36% | – | 77% | 3% | 6%
